# Assay: Tissue, plasma and GI content pharmacokinetics of tacrolimus, oral vs intra-cecal ingestible device delivery
# Assay type: in vivo, Yorkshire-Cross farm swine
# Conditions: swine; intra-cecally vs orally administered, 12 hours post-dose (FIG. 76)
# Description: No further randomization procedure was employed.
# Animals in Group 1 received an ingestible device containing 0.8 mL of vehicle solution (80% alcohol, 20% HCO-60). Animals in Group 2 received orally […] liquid formulation of tacrolimus at 4 mg/0.8 mL per animal (Prograf. 5 mg/mL). Animals in Group 3 received intra-cecally an ingestible device containing tacrolimus at 1 mg in 0.8 mL per ingestible device. Animals in Group 4 received intra-cecally an ingestible device containing tacrolimus at 2 mg in 0.8 mL per ingestible device. Animals in Group 5 received intra-cecally an ingestible device containing tacrolimus at 4 mg in 0.8 mL per ingestible device. […]
# Approximately 200˜400 mg of rectal content were collected, if available, with a fecal swab (Copan Diagnostics Nylon Flocked Dry Swabs, 502CS01). The fecal swab was pre-weighed and weighed after collection in the collection tube (Sterile Tube and Cap No Media, PFPM913S), and the sample weight was recorded. […]
# For tissue necropsy, small intestine fluid and cecal fluid were collected separately from all the animals into two separate square plastic bottles, and stored at −20° C. The length and diameter of the cecum and the colon was measured from one animal in each group and recorded for reference. […] All samples were weighed, and the tissue sample weights were recorded. […]
structure (smiles),measurement,value
"C=CC[C@@H]1/C=C(\C)C[C@H](C)C[C@H](OC)[C@H]2O[C@@](O)(C(=O)C(=O)N3CCCC[C@H]3C(=O)O[C@H](/C(C)=C/[C@@H]3CC[C@@H](O)[C@H](OC)C3)[C@H](C)[C@@H](O)CC1=O)[C@H](C)C[C@@H]2OC [tacrolimus, Tacrolimus]",mean concentration of tacrolimus in the cecum tissue,higher
same,mean concentration of tacrolimus in the proximate colon tissue,higher

# Source: patent US12150775B2, “Treatment of a disease of the gastrointestinal tract with an immunosuppressant” (BIORA THERAPEUTICS, INC., priority 2016, dated 2024)
